Results reported in patent publication US20130225611A1, “Compositions and Methods for Reducing Cancer Cell Proliferation and Modulating Importin-Beta Function” (THE REGENTS OF THE UNIVERSITY OF CALIFORNIA, priority 2011, published 2013).

How the values were obtained:
[1] = system: CRM1-mediated export of NFAT-GFP; assay: NFAT-GFP nuclear export after ionomycin washout in HEK 293 cells; format: cell-based, human; settings: HEK 293, importazole 40 μM, leptomycin B 10 ng/ml, 1 hour after ionomycin washout
Protocol: For all import and export experiments, HEK 293 cells stably expressing NFAT-GFP were grown on glass coverslips to approximately 50% confluency prior to drug treatment. In all cases, importazole was used at 40 μM and leptomycin B was used at 10 ng/ml. For controls, DMSO was used at a concentration of 0.4%. Ionomycin was added at 1.25 μM. Importazole and leptomycin B treatments were all for 1 hour. In all experiments cells were fixed with 4% formaldehyde prior to fluorescence microscopy. DNA was visualized with 1 μg/ml Hoechst dye.

[2] = system: spindle assembly around sperm chromosomes; assay: spindle assembly in metaphase-arrested Xenopus egg extracts; parameters: species or system Xenopus laevis; settings: 100 μM importazole
From the text: In order to determine whether importazole also disrupts mitosis, importazole was first tested in metaphase-arrested Xenopus egg extracts, which rely heavily on a RanGTP gradient for spindle assembly around sperm chromosomes. […] The effect was similar to that of adding a truncated importin-β (amino acids 71-876), a version that no longer binds to RanGTP and therefore sequesters its cargoes. […] Thus, importazole caused dramatic effects on spindle assembly consistent with the known role of the importin-β/RanGTP pathway in the Xenopus egg extract system, and is not a general microtubule inhibitor.
Xenopus laevis egg extracts were prepared as described by Hannak et al. (2006) Nat. Protoc. 1:2305-2314. For in vitro spindle assembly, Xenopus laevis sperm DNA was added to egg extracts supplemented with rhodamine-labeled tubulin. Asters were formed by addition of 5% DMSO. DNA was stained with Hoechst dye. The formation of microtubule-based structures was assessed using epifluorescence microscopy after a 30-minute room temperature incubation. In vitro microtubule polymerization and pelleting assays were performed by incubating 25 μM bovine tubulin, 1 mM GTP, and 5% DMSO in BRB80 buffer (80 mM PIPES, 1 mM MgCl2, 1 mM EGTA, pH 6.8) at 37° C. for 30 minutes. Polymerized microtubules were pelleted through a sucrose cushion, resuspended, and analyzed by SDS PAGE.

Row | Molecule | CRM1-mediated export of NFAT-GFP [1] | sperm nuclei at which normal bipolar microtubule structures were prevented from forming [2]
1 | CCC(=C/[C@H](C)C/C=C/C(C)=C/[C@@H](C)C(=O)[C@@H](C)[C@H](O)[C@@H](C)C/C(C)=C/C(=O)O)/C=C/[C@@H]1OC(=O)C=C[C@@H]1C [leptomycin B, reference compound] | blocked | –
2 | truncated importin-β (amino acids 71-876): truncated importin-β that no longer binds to RanGTP and therefore sequesters its cargoes | – | similar
